Measured values taken from patent US11919902B2, “Aryl-bipyridine amine derivatives as phosphatidylinositol phosphate kinase inhibitors” (HiberCell, Inc., priority 2017, dated 2024).

Tests used:
[1] = target: T1, PIP4K2A (full length protein, SignalChem) (Homo sapiens, UniProt P48426); assay: Kinase Assay PIP4K2 A (Sprint); ADP-Glo biochemical assay; conditions: Table 2; compounds listed under IC50 range headings
T1 construct: 4 nM PIP4K2A (full length protein, SignalChem); purchased SignalChem
T1 sequence (P48426 1-406): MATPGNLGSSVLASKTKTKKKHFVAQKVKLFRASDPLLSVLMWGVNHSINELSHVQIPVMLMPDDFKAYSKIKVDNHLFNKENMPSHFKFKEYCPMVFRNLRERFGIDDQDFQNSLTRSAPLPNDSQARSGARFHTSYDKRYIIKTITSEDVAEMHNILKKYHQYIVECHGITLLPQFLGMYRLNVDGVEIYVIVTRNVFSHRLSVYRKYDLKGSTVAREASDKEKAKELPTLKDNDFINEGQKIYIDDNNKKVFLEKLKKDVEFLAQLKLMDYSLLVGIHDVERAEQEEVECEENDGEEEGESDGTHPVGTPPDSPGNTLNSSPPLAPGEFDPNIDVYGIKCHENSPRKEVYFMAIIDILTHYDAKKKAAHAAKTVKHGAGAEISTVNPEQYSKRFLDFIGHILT
Outline: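 Compounds (10-point, 3-fold dilutions) were pre-incubated 15 min at RT with an enzyme/substrate mix of 4 nM full-length PIP4K2A and 100 μM PI(5)P diC8 in 20 mM MOPS pH 7.2, 25 mM MgCl2, 0.005% Tween 20. A 60 μM ATP solution was added, reaction 1 h RT; ADP read by ADP-Glo luminescence, IC50 fitted from % inhibition vs DMSO.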

[2] = target: T2, GST tagged PIP4KtypeIIB (Homo sapiens, UniProt P78356); assay: Trans-FI P kinase assay PIP4K2B (PIP4KtypeIIB inhibition assay); format: biochemical; conditions: Table 4; compounds listed under IC50 range headings; 100 uM GTP, 5 nM PIP4KIIB; read-out: Trans-FI P kinase assays: PIP4K2B IC50
T2 construct: made in house; host or cells: E. coli
T2 sequence (P78356 1-416): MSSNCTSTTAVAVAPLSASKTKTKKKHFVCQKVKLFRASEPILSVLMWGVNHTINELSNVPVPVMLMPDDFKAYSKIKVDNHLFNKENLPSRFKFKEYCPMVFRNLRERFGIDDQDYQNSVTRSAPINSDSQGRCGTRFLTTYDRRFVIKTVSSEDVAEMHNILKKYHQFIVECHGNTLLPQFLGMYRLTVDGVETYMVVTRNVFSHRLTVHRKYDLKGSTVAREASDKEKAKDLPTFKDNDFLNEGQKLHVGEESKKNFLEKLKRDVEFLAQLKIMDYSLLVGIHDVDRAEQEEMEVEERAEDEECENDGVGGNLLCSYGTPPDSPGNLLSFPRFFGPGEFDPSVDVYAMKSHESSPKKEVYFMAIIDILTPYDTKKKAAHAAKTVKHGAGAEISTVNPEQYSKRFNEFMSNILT
Outline: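 Purified GST-PIP4KIIB (5 nM final), 1 h preincubation with compound at 27 C, then 2 h reaction with 100 uM GTP and 80 uM PI5P plus DOPE carrier lipid in pH 7.3 HEPES/MgCl2/Triton buffer with 5% DMSO. GDP read by Transcreener FI fluorescence against a calibration curve; IC50 from % no-inhibitor activity vs log concentration.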

[3] = target: T3, GST tagged PIP4KtypeIIA (Homo sapiens, UniProt P48426); assay: ADP-glo kinase assay PIP4K 2A (PIP4KtypeIIA inhibition assay); format: biochemical; conditions: Table 3; compounds listed under IC50 range headings; 10 uM ATP, 0.5 nM PIP4KIIA
T3 construct: made in house; host or cells: E. coli
T3 sequence (P48426 1-406): T1 sequence (P48426 1-406)
Outline: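 E. coli-expressed GST-PIP4KtypeIIA (0.5 nM final) was preincubated 1 h at 27 °C with compound (up to 4.8 μM, 5% DMSO) in PI5P/DOPE lipid in 50 mM HEPES pH 7.3 with 10 mM MgCl2. The reaction was started with 10 μM ATP (final) and run 1 h. ADP was read by ADP-Glo luminescence via a calibration curve, and IC50 was taken from % residual activity.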

Row | Structure (SMILES) | IC50 [1] [nM] | IC50 [2] [nM] | IC50 [3] [nM]
1 | O=C1CCCN1c1ccc(-c2cncc(-c3ccnc4c3OCCO4)c2)cc1 [Example 40, 1-[4-[5-(2,3-Dihydro-[1,4]dioxino[2,3-b]pyridin-8-yl)-3-pyridyl]phenyl]pyrrolidin-2-one] | 100 to 1000 | 1000 to 2500 | 2500 to 5000
2 | O=C1CCCN1c1ccc(-c2cncc(-c3ccncc3)c2)cc1 [Example 41, 1-[4-[5-(4-Pyridyl)-3-pyridyl]phenyl]pyrrolidin-2-one] | 1000 to 2500 | > 5000 | > 5000
3 | O=C1Cc2c(-c3cncc(-c4ccc(N5CCCC5=O)cc4)c3)ccnc2N1 [Example 42, 4-(5-(4-(2-oxopyrrolidin-1-yl)phenyl)pyridin-3-yl)-1,3-dihydro-2H-pyrrolo[2,3-b]pyridin-2-one] | 100 to 1000 | 1000 to 2500 | 2500 to 5000
4 | O=C1CCCN1c1ccc(-c2cncc(-c3ccnc4c3cnn4CCO)c2)cc1 [Example 44, 1-(4-(5-(1-(2-hydroxyethyl)-1H-pyrazolo[3,4-b]pyridin-4-yl)pyridin-3-yl)phenyl)pyrrolidin-2-one] | 100 to 1000 | 100 to 1000 | 100 to 1000
5 | Cn1cc(-c2cncc(-c3ccc(N4CCCC4=O)cc3)c2)c2cc(N3CCNCC3)cnc21 [Example 56, 1-(4-(5-(1-methyl-5-(piperazin-1-yl)-1H-pyrrolo[2,3-b]pyridin-3-yl)pyridin-3-yl)phenyl)pyrrolidin-2-one] | 100 to 1000 | 2500 to 5000 | 1000 to 2500
6 | CC(=O)N(C)c1cc(-c2cncc(-c3ccc(N4CCCC4=O)cc3)c2)ccn1 [Example 57, N-methyl-N-(5-(4-(2-oxopyrrolidin-1-yl)phenyl)-[3,4′-bipyridin]-2′-yl)acetamide] | < 5000 | > 5000 | > 5000
7 | CCOc1cnc2[nH]ccc2c1-c1cncc(-c2ccc(N3CCCC3=O)cc2)c1 [Example 59, 1-(4-(5-(5-ethoxy-1H-pyrrolo[2,3-b]pyridin-4-yl)pyridin-3-yl)phenyl)pyrrolidin-2-one] | 100 to 1000 | 100 to 1000 | 1000 to 2500
8 | CNC(=O)c1cnc2c(c1)c(-c1cncc(-c3ccc(N4CCCC4=O)cc3)c1)cn2C [Example 60, N,1-dimethyl-3-(5-(4-(2-oxopyrrolidin-1-yl)phenyl)pyridin-3-yl)-1H-pyrrolo[2,3-b]pyridine-5-carboxamide] | 5 to 100 | 100 to 1000 | 100 to 1000
9 | CN(C)C(=O)c1cnc2c(c1)c(-c1cncc(-c3ccc(N4CCCC4=O)cc3)c1)cn2C [Example 61, N,N,1-trimethyl-3-(5-(4-(2-oxopyrrolidin-1-yl)phenyl)pyridin-3-yl)-1H-pyrrolo[2,3-b]pyridine-5-carboxamide] | 5 to 100 | 100 to 1000 | 100 to 1000
10 | CC(O)c1cnc2c(c1)c(-c1cncc(-c3ccc(N4CCCC4=O)cc3)c1)cn2C (stereo not drawn) [Example 62, 1-(4-(5-(5-(1-hydroxyethyl)-1-methyl-1H-pyrrolo[2,3-b]pyridin-3-yl)pyridin-3-yl)phenyl)pyrrolidin-2-one] | 5 to 100 | 1000 to 2500 | 100 to 1000
11 | CS(=O)(=O)N1Cc2nccc(-c3cncc(-c4ccc(N5CCCC5=O)cc4)c3)c2C1 [Example 64, 1-(4-(5-(6-(methylsulfonyl)-6,7-dihydro-5H-pyrrolo[3,4-b]pyridin-4-yl)pyridin-3-yl)phenyl)pyrrolidin-2-one] | 100 to 1000 | > 5000 | > 5000
12 | COC(=O)N1Cc2nccc(-c3cncc(-c4ccc(N5CCCC5=O)cc4)c3)c2C1 [Example 65, methyl 4-(5-(4-(2-oxopyrrolidin-1-yl)phenyl)pyridin-3-yl)-5,7-dihydro-6H-pyrrolo[3,4-b]pyridine-6-carboxylate] | 100 to 1000 | 1000 to 2500 | 1000 to 2500
13 | O=C1CCCN1c1ccc(-c2cncc(-c3c(OC4CCCNC4)cnc4[nH]ccc34)c2)cc1 (stereo not drawn) [Example 66, 1-(4-(5-(5-(piperidin-3-yloxy)-1H-pyrrolo[2,3-b]pyridin-4-yl)pyridin-3-yl)phenyl)pyrrolidin-2-one] | < 5000 | > 5000 | > 5000

Other lines, results leading:

Row | IC50 [1] [nM] | IC50 [2] [nM] | IC50 [3] [nM] | Structure (SMILES)
14 | 5 to 100 | 10 to 100 | 100 to 1000 | O=C1NCCn2c1cc1c(-c3cncc(-c4ccc(N5CCCC5=O)cc4)c3)ccnc12 [Example 45, 4-(5-(4-(2-oxopyrrolidin-1-yl)phenyl)pyridin-3-yl)-8,9-dihydropyrido[3′,2′:4,5]pyrrolo[1,2-a]pyrazin-6(7H)-one]
15 | 5 to 100 | 10 to 100 | 100 to 1000 | CN1CCn2c(cc3c(-c4cncc(-c5ccc(N6CCCC6=O)cc5)c4)ccnc32)C1=O [Example 46, 7-methyl-4-(5-(4-(2-oxopyrrolidin-1-yl)phenyl)pyridin-3-yl)-8,9-dihydropyrido[3′,2′:4,5]pyrrolo[1,2-a]pyrazin-6(7H)-one]
16 | 5 to 100 | 10 to 100 | 100 to 1000 | O=C1c2cc3c(-c4cncc(-c5ccc(N6CCCC6=O)cc5)c4)ccnc3n2CCN1CC1CC1 [Example 47, 7-(cyclopropylmethyl)-4-(5-(4-(2-oxopyrrolidin-1-yl)phenyl)pyridin-3-yl)-8,9-dihydropyrido[3′,2′:4,5]pyrrolo[1,2-a]pyrazin-6(7H)-one]
17 | 5 to 100 | 10 to 100 | 100 to 1000 | CC(O)c1cnc2[nH]cc(-c3cncc(-c4ccc(N5CCCC5=O)cc4)c3)c2c1 (stereo not drawn) [Example 48, 1-(4-(5-(5-(1-hydroxyethyl)-1H-pyrrolo[2,3-b]pyridin-3-yl)pyridin-3-yl)phenyl)pyrrolidin-2-one]
18 | 5 to 100 | 10 to 100 | 10 to 100 | CNC(=O)c1cc2c(-c3cncc(-c4ccc(N5CCCC5=O)cc4)c3)ccnc2o1 [Example 49, N-methyl-4-(5-(4-(2-oxopyrrolidin-1-yl)phenyl)pyridin-3-yl)furo[2,3-b]pyridine-2-carboxamide]
19 | 5 to 100 | 10 to 100 | 100 to 1000 | CN(C)C(=O)c1cc2c(-c3cncc(-c4ccc(N5CCCC5=O)cc4)c3)ccnc2o1 [Example 50, N,N-dimethyl-4-(5-(4-(2-oxopyrrolidin-1-yl)phenyl)pyridin-3-yl)furo[2,3-b]pyridine-2-carboxamide]
20 | 5 to 100 | 10 to 100 | 100 to 1000 | N#Cc1[nH]c2ncccc2c1-c1cncc(-c2ccc(N3CCCC3=O)cc2)c1 [Example 51, 3-(5-(4-(2-oxopyrrolidin-1-yl)phenyl)pyridin-3-yl)-1H-pyrrolo[2,3-b]pyridine-2-carbonitrile]
21 | 5 to 100 | 100 to 1000 | 100 to 1000 | Cn1cc(-c2cncc(-c3ccc(N4CCCC4=O)cc3)c2)c2cn[nH]c2c1=O [Example 54, 6-methyl-4-(5-(4-(2-oxopyrrolidin-1-yl)phenyl)pyridin-3-yl)-1,6-dihydro-7H-pyrazolo[3,4-c]pyridin-7-one]
22 | 5 to 100 | 100 to 1000 | 100 to 1000 | Cn1cc(-c2cncc(-c3ccc(N4CCCC4=O)cc3)c2)c2cnn(C)c2c1=O [Example 55, 1,6-dimethyl-4-(5-(4-(2-oxopyrrolidin-1-yl)phenyl)pyridin-3-yl)-1,6-dihydro-7H-pyrazolo[3,4-c]pyridin-7-one]
23 | 5 to 100 | 100 to 1000 | 2500 to 5000 | O=C1CCCN1c1ccc(-c2cncc(-c3ccnc4[nH]ccc34)c2)cc1 [Example 58, 1-(4-(5-(1H-pyrrolo[2,3-b]pyridin-4-yl)pyridin-3-yl)phenyl)pyrrolidin-2-one]
